Assay [1] deals with T1, human TLR7 (Homo sapiens, UniProt Q9NYK1).
T1 construct: host or cells: HEK293
T1 sequence (Q9NYK1 27-1049): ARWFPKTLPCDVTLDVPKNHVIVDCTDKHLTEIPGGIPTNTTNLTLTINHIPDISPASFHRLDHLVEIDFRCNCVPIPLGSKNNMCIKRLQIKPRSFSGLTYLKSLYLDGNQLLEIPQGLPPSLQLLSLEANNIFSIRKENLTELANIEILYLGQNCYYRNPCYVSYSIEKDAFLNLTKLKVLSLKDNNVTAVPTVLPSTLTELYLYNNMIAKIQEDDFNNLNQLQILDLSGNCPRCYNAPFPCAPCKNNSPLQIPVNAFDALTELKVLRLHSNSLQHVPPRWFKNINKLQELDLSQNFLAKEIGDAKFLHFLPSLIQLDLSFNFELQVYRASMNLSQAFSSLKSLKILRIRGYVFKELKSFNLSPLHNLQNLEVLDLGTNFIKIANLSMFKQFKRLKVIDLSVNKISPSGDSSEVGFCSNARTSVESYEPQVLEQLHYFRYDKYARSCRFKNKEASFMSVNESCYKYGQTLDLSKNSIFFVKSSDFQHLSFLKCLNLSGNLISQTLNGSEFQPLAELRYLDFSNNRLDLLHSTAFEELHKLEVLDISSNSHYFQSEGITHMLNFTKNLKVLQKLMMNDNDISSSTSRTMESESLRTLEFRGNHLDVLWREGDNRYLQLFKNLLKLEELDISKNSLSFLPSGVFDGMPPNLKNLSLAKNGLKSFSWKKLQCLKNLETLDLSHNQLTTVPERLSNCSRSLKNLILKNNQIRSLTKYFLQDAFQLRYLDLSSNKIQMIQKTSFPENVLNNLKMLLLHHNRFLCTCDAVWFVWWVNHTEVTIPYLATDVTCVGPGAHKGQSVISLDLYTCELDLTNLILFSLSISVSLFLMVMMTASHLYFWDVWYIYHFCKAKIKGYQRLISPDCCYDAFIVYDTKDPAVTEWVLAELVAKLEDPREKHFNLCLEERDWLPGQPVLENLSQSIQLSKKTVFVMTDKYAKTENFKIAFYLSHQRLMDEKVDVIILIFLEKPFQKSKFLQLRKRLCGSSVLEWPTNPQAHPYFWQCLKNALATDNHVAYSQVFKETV
Description: HEK293 hTLR7 NFKB-SEAP reporter assay. It counts as cell-based. The note with it: for EC50: HEK293 stably transfected with hTLR7, 24 h stimulation, aqueous formulations of choline salts (2% glycerol), SEAP readout, read-out: TLR7 ED50; for TLR7/8 ratio: ratio of TLR7 ED50 to TLR8 ED50, HEK293 reporter cells. Here is the method: (§1) Determination of TLR agonist activity was performed using the HEK293 binding assay.
(§2) This assay measures TLR7 and TLR8 selectivity and potency of the compounds tested. HEK293 cells expressing human TLR7 or TLR8 and NFKB responsive Secreted Embryonic Alkaline Phosphatase (SEAP) reporter gene were obtained from InvitroGen (San Diego, Calif.). These cells were maintained in culture media of Dulbecco's Modified Eagle Medium (DMEM) (Invitrogen, Grand Island, N.Y.), 10% Fetal Bovine Serum (FBS) (Sigma, St. Louis, Mo.) and selection antibiotics (Invitrogen, and Invitrogen). HEK293 stably transfected with human TLR7 (hTLR7) or human TLR8 (hTLR8) were stimulated for 24 h with aqueous formulations of compounds and culture supernatants were analysed for NFKB activation using the colorimetric SEAP detection kit QuantBlue (InvitroGen).
(§3) Choline salts of the compounds were prepared in aqueous solution (2% glycerol) and sonicated to reduce particle size to 120-370 nm.

The target in assay [2] is T2, human TLR8 (Homo sapiens, UniProt Q9NR97).
T2 construct: host or cells: HEK293
T2 sequence (Q9NR97 27-1041): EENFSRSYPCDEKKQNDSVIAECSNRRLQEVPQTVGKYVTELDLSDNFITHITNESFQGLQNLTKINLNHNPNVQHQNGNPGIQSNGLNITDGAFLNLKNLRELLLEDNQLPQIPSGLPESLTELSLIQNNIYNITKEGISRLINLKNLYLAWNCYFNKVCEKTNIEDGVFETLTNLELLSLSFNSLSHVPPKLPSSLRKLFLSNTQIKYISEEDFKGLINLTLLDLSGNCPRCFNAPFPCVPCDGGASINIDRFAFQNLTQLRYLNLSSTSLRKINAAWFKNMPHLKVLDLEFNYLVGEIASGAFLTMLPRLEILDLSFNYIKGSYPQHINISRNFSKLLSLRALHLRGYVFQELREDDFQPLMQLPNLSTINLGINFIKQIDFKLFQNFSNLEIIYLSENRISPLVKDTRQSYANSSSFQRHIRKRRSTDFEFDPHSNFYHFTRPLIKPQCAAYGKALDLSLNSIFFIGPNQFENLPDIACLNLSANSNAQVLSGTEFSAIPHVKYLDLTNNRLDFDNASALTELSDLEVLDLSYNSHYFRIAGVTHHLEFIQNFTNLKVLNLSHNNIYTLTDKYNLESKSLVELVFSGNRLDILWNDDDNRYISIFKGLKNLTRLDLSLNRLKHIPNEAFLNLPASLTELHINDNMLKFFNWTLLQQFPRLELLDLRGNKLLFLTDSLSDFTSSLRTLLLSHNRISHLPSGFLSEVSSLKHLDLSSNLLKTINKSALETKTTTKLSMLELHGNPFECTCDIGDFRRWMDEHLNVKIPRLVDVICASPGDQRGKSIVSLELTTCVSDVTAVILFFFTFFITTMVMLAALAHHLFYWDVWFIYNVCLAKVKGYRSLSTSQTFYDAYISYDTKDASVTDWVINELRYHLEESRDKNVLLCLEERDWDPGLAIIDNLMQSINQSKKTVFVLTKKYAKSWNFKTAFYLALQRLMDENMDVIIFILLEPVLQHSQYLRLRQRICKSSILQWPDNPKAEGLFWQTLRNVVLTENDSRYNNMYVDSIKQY
Kind of assay: HEK293 hTLR8 NFKB-SEAP reporter assay. It is filed as cell-based. The conditions noted are these: for EC50: HEK293 stably transfected with hTLR8, 24 h stimulation, aqueous formulations of choline salts (2% glycerol), SEAP readout, read-out: TLR8 ED50. Here is the method:
as §1, §2, §3

`CCC[C@H](C)Oc1nc(N)c2[nH]c(=O)n(CC3CCN(CCO)CC3)c2n1`: in assay [1], the EC50 is 340 nM and the TLR7/8 ratio turned out to be 0.6. The EC50 in assay [2] was determined as 530 nM.
As to `CCCCCCCC/C=C\CCCCCCCC(=O)OC[C@H](COP(=O)(O)OCCN1CCC(Cn2c(=O)[nH]c3c(N)nc(O[C@@H](C)CCC)nc32)CC1)OC(=O)CCCCCCC/C=C\CCCCCCCC` [Compound 1], in assay [1] (HEK293 hTLR7, result in words), the “hTLR7 activity compared with parent core oxoadenine compound” value is on record as “slightly more potent”. Besides, in assay [1] (HEK293 hTLR7 vs hTLR8, relative to similar prior art compounds), the “TLR7/TLR8 selectivity in words” value is listed as “TLR7 bias”. Also, the values for the EC50 in assay [1] and in assay [2] were 320 nM and 470 nM, respectively. Besides, the TLR7/8 ratio in assay [1] is 0.7. Moreover, the “hTLR8 activity compared with parent core oxoadenine compound” value in assay [2] (HEK293 hTLR8, result in words) was “slightly more potent”.
`CCCCc1nc2c(N)nc3ccccc3c2n1CCO` [reference compound]: in assay [1], the EC50 turned out to be 580 nM and the TLR7/8 ratio was determined as 3.1. Further, in assay [2], the EC50 came out at 190 nM.
For `CC/C=C\CC(=O)OC[C@H](COP(=O)(O)OCCn1c(CCCC)nc2c(N)nc3ccccc3c21)OC(=O)C/C=C\CC` [reference compound], in assay [1], the EC50 was 34600 nM and the TLR7/8 ratio is given as 1.3. The EC50 in assay [2] came to 26000 nM.

The record behind these values is US20210371440A1, “TLR7 AND / OR TLR8 AGONISTS” (GLAXOSMITHKLINE BIOLOGICALS SA, priority 2018, published 2021).
